Legend:
[1] = target: T1, hRIPK1 (aa 1-375) fusion protein (Homo sapiens, UniProt Q13546); assay: ADP-Glo kinase assay: catalytic activity of RIPK1 (autophosphorylation, conversion of ATP to ADP); format: biochemical
T1 construct: hRIPK1 (aa 1-375) fusion protein
T1 sequence (Q13546 1-375): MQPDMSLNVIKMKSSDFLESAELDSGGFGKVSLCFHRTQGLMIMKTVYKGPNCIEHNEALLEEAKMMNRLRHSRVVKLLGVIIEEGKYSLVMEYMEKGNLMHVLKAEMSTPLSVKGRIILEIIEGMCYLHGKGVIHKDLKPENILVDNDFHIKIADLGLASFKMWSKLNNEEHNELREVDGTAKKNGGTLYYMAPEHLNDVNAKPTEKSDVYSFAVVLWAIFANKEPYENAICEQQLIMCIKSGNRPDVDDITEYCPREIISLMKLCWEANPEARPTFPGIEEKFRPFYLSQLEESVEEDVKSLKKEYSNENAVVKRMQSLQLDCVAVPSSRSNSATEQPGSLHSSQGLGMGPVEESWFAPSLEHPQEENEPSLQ
Method in brief: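 hRIPK1 (aa 1-375) fusion protein (3.6 μg/ml final) was preincubated 30 min at rt with compound (33300-1.69 nM, 1% DMSO), then 50 μM ATP was added for 240 min at rt. ADP from autophosphorylation was measured by ADP-Glo luminescence and curves fitted by nonlinear regression.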

U937 cells = assay: Cellular assay in U937 cells: activity of RIPK1 inhibitors on TNFα/zVAD.fmk-induced cell death (necroptosis), CellTiter 96 AQueous (MTS) readout; format: cell-based; conditions: Homo sapiens, U-937
Method in brief: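 Necroptosis was measured by viable-cell MTS reduction (4 h, absorbance 490 nm) after overnight (18–24 h) 37° C culture. Cell suspensions of U937 cells carried TNFα (100 ng/ml) plus zVAD.fmk (50 μM) before compound was added. A 10-point curve (10 μM–0.26 nM or 1 μM–0.07 nM) was run in duplicate, normalised to the control lacking TNFα/zVAD.fmk.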

SMILES	IC50 [1]	IC50 (U937 cells)
Cc1cc(C)n(C[C@H]2CC[C@H](C(=O)N3OCC[C@H]3c3cc(F)cc(C#N)c3)CC2)n1 [compound 119, trans-3-((S)-2-(4-((3,5-dimethyl-1H-pyrazol-1-yl)methyl)cyclohexane-1-carbonyl)isoxazolidin-3-yl)-5-fluorobenzonitrile]	27 nM	54 nM
COc1ccc2c(ccn2C[C@H]2CC[C@H](C(=O)N3OCC[C@H]3c3cc(F)cc(C#N)c3)CC2)n1 [compound 120, trans-3-fluoro-5-[(3S)-2-[4-[(5-methoxypyrrolo[3,2-b]pyridin-1-yl)methyl]cyclohexanecarbonyl]isoxazolidin-3-yl]benzonitrile]	41 nM	6 nM
N#Cc1cncc([C@@H]2CCON2C(=O)[C@H]2CC[C@H](Cn3cc(C#N)ccc3=O)CC2)c1 [compound 122, trans-1-[[4-[(3S)-3-(5-cyano-3-pyridyl)isoxazolidine-2-carbonyl]cyclohexyl]methyl]-6-oxo-pyridine-3-carbonitrile]	125 nM	797 nM
N#Cc1cncc([C@@H]2CCON2C(=O)[C@H]2CC[C@H](Cn3ccc4ncc(F)cc43)CC2)c1 [compound 123, trans-5-((S)-2-(4-((6-fluoro-1H-pyrrolo[3,2-b]pyridin-1-yl)methyl)cyclohexane-1-carbonyl)isoxazolidin-3-yl)nicotinonitrile]	46 nM	12 nM
Cc1cc(C)n(-c2cc(C[C@H]3CC[C@H](C(=O)N4OCC[C@H]4c4cc(F)cc(C#N)c4)CC3)ncn2)n1 [compound 124, trans-3-[(3S)-2-[4-[[6-(3,5-dimethylpyrazol-1-yl)pyrimidin-4-yl]methyl]cyclohexanecarbonyl]isoxazolidin-3-yl]-5-fluoro-benzonitrile]	26 nM	68 nM
Cc1cc(C)n(-c2cc(C[C@H]3CC[C@H](C(=O)N4OCC[C@H]4c4cc(F)cc(F)c4)CC3)ncn2)n1 [compound 125, trans-[(3S)-3-(3,5-difluorophenyl)isoxazolidin-2-yl]-[4-[[6-(3,5-dimethylpyrazol-1-yl)pyrimidin-4-yl]methyl]cyclohexyl]methanone]	9 nM	16 nM
N#Cc1cncc([C@@H]2CCON2C(=O)[C@H]2CC[C@H](Cn3ncc4cc(F)ccc43)CC2)c1 [compound 126, trans-5-((S)-2-(4-((5-fluoro-1H-indazol-1-yl)methyl)cyclohexane-1-carbonyl)isoxazolidin-3-yl)nicotinonitrile]	37 nM	29 nM
N#Cc1cncc([C@@H]2CCON2C(=O)[C@H]2CC[C@H](Cn3cc4ccc(C#N)cc4n3)CC2)c1 [compound 127, trans-2-((4-((S)-3-(5-cyanopyridin-3-yl)isoxazolidine-2-carbonyl)cyclohexyl)methyl)-2H-indazole-6-carbonitrile]	29 nM	15 nM
COc1cnc2ccn(C[C@H]3CC[C@H](C(=O)N4OCC[C@H]4c4cc(F)cc(C#N)c4)CC3)c2c1 [compound 128, trans-3-fluoro-5-[(3S)-2-[4-[(6-methoxypyrrolo[3,2-b]pyridin-1-yl)methyl]cyclohexanecarbonyl]isoxazolidin-3-yl]benzonitrile]	22 nM	4 nM
N#Cc1cc(F)cc([C@@H]2CCON2C(=O)[C@H]2CC[C@H](Cn3ccc4ncc(O)cc43)CC2)c1 [compound 129, trans-3-fluoro-5-[(3S)-2-[4-[(6-hydroxypyrrolo[3,2-b]pyridin-1-yl)methyl]cyclohexanecarbonyl]isoxazolidin-3-yl]benzonitrile]	29 nM	7 nM
N#Cc1cncc([C@@H]2CCON2C(=O)[C@H]2CC[C@H](Cn3ccc4c(F)cc(C#N)cc43)CC2)c1 [compound 130, trans-1-((4-((S)-3-(5-cyanopyridin-3-yl)isoxazolidine-2-carbonyl)cyclohexyl)methyl)-4-fluoro-1H-indole-6-carbonitrile]	11 nM	2 nM
Cc1ccc([C@@H]2CCON2C(=O)[C@H]2CC[C@H](Cc3ccc(C)c(C(N)=O)c3)CC2)cc1 [compound 131, trans-2-methyl-5-[[4-[(3S)-3-(p-tolyl)isoxazolidine-2-carbonyl]cyclohexyl]methyl]benzamide]	15 nM	5 nM
Cc1ccc(C[C@H]2CC[C@H](C(=O)N3OCC[C@H]3c3cc(F)cc(F)c3)CC2)cc1C(N)=O [compound 132, trans-5-[[4-[(3S)-3-(3,5-difluorophenyl)isoxazolidine-2-carbonyl]cyclohexyl]methyl]-2-methyl-benzamide]	13 nM	4 nM
Cc1ccc(C[C@H]2CC[C@H](C(=O)N3OCC[C@H]3c3cc(F)cc(C#N)c3)CC2)cc1C(N)=O [compound 133, trans-5-[[4-[(3S)-3-(3-cyano-5-fluoro-phenyl)isoxazolidine-2-carbonyl]cyclohexyl]methyl]-2-methyl-benzamide]	8 nM	8 nM
N#Cc1cnc2ccn(C[C@H]3CC[C@H](C(=O)N4OCC[C@H]4c4cnccn4)CC3)c2c1 [compound 134, trans-1-[[4-[(3S)-3-pyrazin-2-ylisoxazolidine-2-carbonyl]cyclohexyl]methyl]pyrrolo[3,2-b]pyridine-6-carbonitrile]	27 nM	25 nM
Cc1ccc([C@@H]2CCON2C(=O)[C@H]2CC[C@H](Cc3cc(-n4ccnc4C)ncn3)CC2)cc1 [compound 136, trans-[4-[[6-(2-methylimidazol-1-yl)pyrimidin-4-yl]methyl]cyclohexyl]-[(3S)-3-(p-tolyl)isoxazolidin-2-yl]methanone]	26 nM	26 nM
N#Cc1cnc2cnn(C[C@H]3CC[C@H](C(=O)N4OCC[C@H]4c4cnccn4)CC3)c2c1 [compound 137, trans-1-[[4-[(3S)-3-pyrazin-2-ylisoxazolidine-2-carbonyl]cyclohexyl]methyl]pyrazolo[4,3-b]pyridine-6-carbonitrile]	30 nM	46 nM
Cc1ccc(C[C@H]2CC[C@H](C(=O)N3OCC[C@H]3c3cnccn3)CC2)cc1C(N)=O [compound 138, trans-2-methyl-5-[[4-[(3S)-3-pyrazin-2-ylisoxazolidine-2-carbonyl]cyclohexyl]methyl]benzamide]	18 nM	25 nM
Cc1ccc(C[C@H]2CC[C@H](C(=O)N3OCC[C@H]3c3cnccn3)CC2)cc1C#N [compound 139, trans-2-methyl-5-[[4-[(3S)-3-pyrazin-2-ylisoxazolidine-2-carbonyl]cyclohexyl]methyl]benzonitrile]	10 nM	2 nM
N#Cc1cncc(C[C@H]2CC[C@H](C(=O)N3OCC[C@H]3c3cnccn3)CC2)c1 [compound 140, trans-5-[[4-[(3S)-3-pyrazin-2-ylisoxazolidine-2-carbonyl]cyclohexyl]methyl]pyridine-3-carbonitrile]	40 nM	173 nM
N#Cc1cncc(C[C@H]2CC[C@H](C(=O)N3OCC[C@H]3c3cc(F)cc(C#N)c3)CC2)c1 [compound 141, trans-5-[[4-[(3S)-3-(3-cyano-5-fluoro-phenyl)isoxazolidine-2-carbonyl]cyclohexyl]methyl]pyridine-3-carbonitrile]	13 nM	17 nM
